One series has as its system FOP-iMSCs. Briefly: Microarray / pathway analysis of activin A-induced chondrogenesis of FOP-iMSCs. In kind it is cell-based, human. The following applies: 100 nM, activin A, 7 days. As for the experimental part:
Microarray experiments. 2D chondrogenic induction was performed in FOP-iMSCs stimulated with or without 100 ng/mL Activin-A, TAK 165, CP-724714 and Lapatinib. Seven days after incubation, mRNA was extracted. RNA was reverse transcribed, biotin-labeled and hybridized to GeneChip Human Gene 1.0 ST Expression Array, which was subsequently washed and scanned according to the manufacturer’s instructions (Affymetrix). Raw CEL files were imported into GeneSpring GX 12.6.1 software (Agilent Technologies), and expression values were calculated with the RMA16 algorithm. Pathway analysis was performed by Ingenuity pathway analysis (Qiagen). […]

The test system of series [1] is TGF-β signaling (CAGA-Luc). Description: CAGA-Luc reporter assay in FOP-iMSCs. In kind it is cell-based, human. Particulars: activin A and compounds for 3 hr. Here is the method:
FOP-iMSCs transiently transfected with BRE-Luc (A) or CAGA-Luc (B) with CMV-Renilla were stimulated with activin A and compounds for 16 hr (A) or 3 hr (B). […] One day after siRNA transfection, chondrogenic induction with activin A was initiated, and after 7 days the cells were harvested. […] FOP-iMSCs cultured with 10% FBS were treated with 100 nM rapamycin (Rapa) or TAK 165 (TAK) for 2 hr, and the cells were harvested. […] 1 μM TAK, 1 μM CP (CP-724714, another selective ERBB2 inhibitor), or 10 nM Rapa were applied in the experiments.

Series [2] is described as follows: AlamarBlue viability assay in ATDC5/FOP-ACVR1. Particulars: mouse. Here is the method: Generation of ATDC5 stably expressing ACVR1. WT - or FOP-ACVR1 was inserted into doxycycline (Dox)- […]
(KW111/WT-ACVR1 or KW111/FOP-ACVR1). KW111/WT-ACVR1 or KW111/FOP-ACVR1 and PBaseII […]
FuGeneHD® (Promega) according to the manufacturer’s protocol, and the neomycin- resistant population (500 µg/mL) was selected. Further selection was performed by selecting a mCherry high positive population (< 5%) after six hours of Dox treatment, sorting it with fluorescent-activated cell sorting (FACS) using AriaII (BD) according to the manufacturer’s protocol, and designating it as ATDC5/WT-ACVR1 or ATDC5/FOP-ACVR1.
KW111 included PB, active transposable PB elements; TRE-mCMVP, Tetracycline Response Element and a minimal CMV promoter; rtTA, reverse tetracycline-controlled transactivator. PBaseII was an expression plasmid vector containing the PB transposase cDNA with optimized codon usage to human under the control […]
HTS campaign and follow-up screens. ATDC5/FOP-ACVR1 cells were plated in 96-well white plates (2,000 cells/well/40 µ L, Corning) in DMEM/F-12 supplemented with 5% (v/v) FBS. […]
37 °C under 5% CO2. After 3 days incubation, Alkaline Phosphatase activity (ALP) or AlamarBlue activity was measured using Amplite™ Colorimetric Alkaline Phosphatase Assay Kit (AAT Bioquest) or alamarBlue® Cell Viability Reagent (Thermo Fisher Scientific) according to the manufacturer’s protocol, respectively. T h e […]
was measured on POWERSCAN4 (DS Pharma Biomedical) or EnVision® Multilabel Reader (PerkinElmer).
Inhibitory effects of the screened compounds are given as percent inhibition, which was calculated using the following equation: (1-([Abs of compound] - [Abs of Min])/([Abs of Max] - [Abs of Min]))× 100, where [Abs of Max] and [Abs of Min] are the mean Abs of DMSO control and 1 µM DMH-1, respectively. The Z’ factor, which is widely used as a measure of the assay quality of each plate, was calculated using the following equation: Z’ factor = 1 - 3 × ([SD of Max] + [SD of Min])/([Abs of Max] - [Abs of Min]) (SI Appendix, Fig.
The S/B (signal-to-background) ratio was calculated using the following equation: ([Abs of Max]/[Abs of Min]) (SI Appendix, Fig. S3B).
Using ATDC5/FOP-ACVR1 cells, we performed a first screening (n=2; test compounds = 1 µM, Fig. […]

The test system of series [3] is BMP-7-induced HO model mice (C57BL/6). Description: BMP-7-induced HO model mice. The text has this: MTOR s604 […]tt […]at […]
For X- ray images, mice were anesthetized with isoflurane (5% for induction, 2-3% for maintenance, Abbvie), immobilized and X-rayed using µFX-1000 (Fujifilm) or DX-50 (Faxitron Bioptics). µCT images were scanned using X-ray CT systems (inspeXio SMX-100CT, Shimadzu) and analyzed with TRI/3D-BON software (Ratoc System Engineering) according to the manufacturer's instructions. Four weeks after injection, the injected sites were harvested, fixed with 4% paraformaldehyde for 24 h, embedded in paraffin, and sectioned and stained […]
BMP-7-induced HO model mice. BMP -7 (2 µ g/mouse) was injected into the right gastrocnemius muscle of C57BL/6NJcl mice (6-8 weeks, male, CLEA Japan), and compounds were administered once a day, five times a week (intraperitoneal administration). Mice were analyzed 2 weeks after injection. […]

Another series has as its system mTOR signaling (p-S6). Briefly: p-S6 western blotting during chondrogenic induction of FOP-iMSCs with activin A. In kind it is cell-based, human. Particulars: 1 μM. For orientation: Immunoblotting shows a protein as a band on a membrane.

By viability is commonly meant a read-out of living cells in per cent, often relative to untreated cells.

Turning to `FC(F)(F)c1ccc(/C=C/c2nc(COc3ccc(CCCCn4ccnn4)cc3)co2)cc1` [TAK 165, mubritinib], in the series on FOP-iMSCs, the “transcriptome: genes involved in chondrogenesis or osteogenesis” value is listed as “affected genes that are involved in chondrogenesis or osteogenesis”. Besides, the “CAGA-Luc (TGF-β-responsive luciferase reporter)” value in series [1] is listed as “did not affect”. Moreover, the viability at 3 days, 10 µM in series [2] came out at 117%. In addition, the “body weight change compared to vehicle group” value in series [3] (i.p. for 2 weeks, n=5) is reported as “No significant differences”. In addition, in series [3] (i.p. once daily 5 times a week for 2 weeks), the “BMP-7-induced HO (heterotopic bone volume)” value is recorded as “suppressed”. In addition, the “# of HO (> 20 mm3): number of mice harboring HO” value in series [3] (i.p. once daily 5 times a week for 2 weeks, N = 5) is given as 1/5. Moreover, the “p-S6 after 24-hr stimulation” value in the series with mTOR signaling (p-S6) (24 hr) was “no effects”. For the same compound, in the series with mTOR signaling (p-S6) (7 days), the “p-S6 after 7 days of stimulation” value is reported as “dramatically decreased”.

The values are drawn from article PMC6235670, “An mTOR Signaling Modulator Suppressed Heterotopic Ossification of Fibrodysplasia Ossificans Progressiva” (Stem Cell Reports, 2018).
